Measured values as given in patent US9187467B2, “2-phenyl benzothiazole linked imidazole compounds as potential anticancer agents and process for the preparation thereof” (Council of Scientific and Industrial Research, priority 2012, dated 2015).
Read-outs that look alike come from different tables or passages of the source.

Legend:
Assay type in all cases: cell-based, human
HL-60 (TB) = experiment: SRB anticancer assay, leukemia; set-up: Log10GI50: unit not given here
K-562 = experiment: SRB anticancer assay, leukemia; set-up: Log10GI50: unit not given here
MOLT-4 = experiment: SRB anticancer assay, leukemia; set-up: Log10GI50: unit not given here
HCT-116 = experiment: SRB anticancer assay, colon; conditions: Homo sapiens, HCT-116, 48 h
SW-620 = experiment: SRB anticancer assay, colon; set-up: Log10GI50: unit not given here
SNB-19 = experiment: SRB anticancer assay, CNS; set-up: Log10GI50: unit not given here
SNB-75 = experiment: SRB anticancer assay, CNS; set-up: Log10GI50: unit not given here
U251 = experiment: SRB anticancer assay, CNS; set-up: Log10GI50: unit not given here
OVCAR-5 = experiment: SRB anticancer assay, ovarian; conditions: Homo sapiens, OVCAR-5, 48 h
786-0 = experiment: SRB anticancer assay, renal
UO-31 = experiment: SRB anticancer assay, renal; set-up: Log10GI50: unit not given here
RXF 393 = experiment: SRB anticancer assay, renal; set-up: Log10GI50: unit not given here
DU-145 = experiment: SRB anticancer assay, prostate; set-up: Log10GI50: unit not given here
MDA-MB-231/ATCC = experiment: SRB anticancer assay, breast; set-up: Log10GI50: unit not given here; conditions: for GI50: Homo sapiens, MDA-MB-231, 48 h, 48 h, read-out: GI50
BT-549 = experiment: SRB anticancer assay, breast; set-up: Log10GI50: unit not given here
MALME-3M = experiment: SRB anticancer assay, melanoma; set-up: Log10GI50: unit not given here
SK-MEL-2 = experiment: SRB anticancer assay, melanoma
Breast cancer cell lines = experiment: SRB anticancer assay, panel result
How it was run: (§1)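 Sulforhodamine B protein staining after 48 h continuous drug exposure gave growth/viability readings. Dose–response covered a minimum of five 10-fold-spaced concentrations across sixty human cancer lines from nine tumour types.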

CNS cancer cell lines = experiment: SRB anticancer assay, panel result
How it was run: as §1

Colon cancer cell lines = experiment: SRB anticancer assay, panel result
How it was run: as §1

[1] = tested on: Leukemia cancer cell lines; experiment: SRB anticancer assay, panel result
How it was run: as §1

[2] = tested on: Melanoma cancer cell lines; experiment: SRB anticancer assay, panel result
How it was run: as §1

[3] = tested on: Non-small cell lung cancer cell lines; experiment: SRB anticancer assay, panel result
How it was run: as §1

[4] = tested on: Ovarian cancer cell lines; experiment: SRB anticancer assay, panel result
How it was run: as §1

[5] = tested on: Prostate cancer cell lines; experiment: SRB anticancer assay, panel result
How it was run: as §1

Renal cancer cell lines = experiment: SRB anticancer assay, panel result
How it was run: as §1

Molecule `COc1ccc(-c2cncn2-c2ccc(-c3nc4cc(OC)c(OC)c(OC)c4s3)cc2)cc1N` [Compound 7j, 2-Methoxy-5-(1-(4-(5,6,7-trimethoxybenzo[d]thiazol-2-yl)phenyl)-1H-imidazol-5-yl)benzeneamine] has a Log10GI50 (HL-60 (TB); HL-60(TB), present compounds) of −5.66, a GI50 (HL-60 (TB); Homo sapiens, HL-60, 48 h) of 2.2 µM and a GI50 (K-562; Homo sapiens, K562, K-562, 48 h) of 3.38 µM. The Log10GI50 (K-562; K-562, present compounds) was −5.47, the GI50 (MOLT-4; Homo sapiens, MOLT-4, 48 h) was 4 µM and the Log10GI50 (MOLT-4; MOLT, present compounds) was −5.40. It also gave a GI50 (HCT-116) of 3.78 µM, a GI50 (SW-620; Homo sapiens, SW-620, 48 h) of 6.21 µM and a Log10GI50 (SW-620; SW-620, present compounds) of −5.21. For the same molecule, the GI50 (SNB-19; Homo sapiens, SNB-19, 48 h) was > 100 µM, the Log10GI50 (SNB-19; SNB-19, present compounds) was >−4.0 and the GI50 (SNB-75; Homo sapiens, SNB-75, 48 h) was 52.3 µM. It also gave a Log10GI50 (SNB-75; SNB-75, present compounds) of −4.28, a GI50 (U251; Homo sapiens, U-251, U251, 48 h) of 6 µM and a Log10GI50 (U251; U251, present compounds) of −5.22. For the same molecule, the GI50 (OVCAR-5) was > 100 µM, the Log10GI50 (786-0; 786-0, present compounds) was −5.24 log10 M and the GI50 (786-0; Homo sapiens, 786-0, 48 h) was 5.73 µM. For the same molecule, the GI50 (UO-31; Homo sapiens, UO-31, 48 h) was 1.99 µM, the Log10GI50 (UO-31; UO-31, present compounds) was −5.70 and the GI50 (RXF 393; Homo sapiens, RXF 393, 48 h) was 5.98 µM. For the same molecule, the Log10GI50 (RXF 393; RXF 393, present compounds) was −5.22, the Log10GI50 (DU-145; DU-145, present compounds) was −5.20 and the GI50 (DU-145; Homo sapiens, DU-145, 48 h) was 6.38 µM. For the same molecule, the GI50 (MDA-MB-231/ATCC; MDA-MB-231/ATCC (row head MDA-MB-)) was > 100 µM, the GI50 (MDA-MB-231/ATCC; row head printed 231/ATCC (second line of MDA-MB-231/ATCC)) was 28.3 µM and the Log10GI50 (MDA-MB-231/ATCC; MDA-MB-231/ATCC, present compounds) was >−4.0. It also gave a Log10GI50 (BT-549; BT-549, present compounds) of −5.21, a GI50 (BT-549; Homo sapiens, BT-549, 48 h) of 3.02 µM and a GI50 (MALME-3M; Homo sapiens, Malme-3M, 48 h) of 2.48 µM. For the same molecule, the Log10GI50 (MALME-3M; MALME-3M, present compounds) was −5.61, the GI50 (SK-MEL-2; Homo sapiens, SK-MEL-2, 48 h) was 6.04 µM and the Log10GI50 (SK-MEL-2; SK-MEL-2, present compounds) was −5.22 M. The “mean graph midpoint value (MG_MID) of Log10 GI50” value (Breast cancer cell lines; Breast panel) was −4.96 mol/L, the “mean graph midpoint value (MG_MID) of log10 TGI” value (Breast cancer cell lines; Breast panel, total inhibition of net cell growth) was >−4.0 and the CC50 (Breast cancer cell lines; Homo sapiens, Breast panel, 50% net cell death, read-out: mean graph midpoint value (MG_MID) of Log10 LC50 (converted)) was > 100 µM. The GI50 (Breast cancer cell lines; Homo sapiens, six breast cancer cell lines, exposure at least 48 h, read-out: GI50, range over the panel) was 3.02 to 28.3 µM, the “mean graph midpoint value (MG_MID) of Log10 GI50” value (CNS cancer cell lines; CNS panel) was −4.53 mol/L and the “mean graph midpoint value (MG_MID) of log10 TGI” value (CNS cancer cell lines; CNS panel, total inhibition of net cell growth) was >−4.0. The CC50 (CNS cancer cell lines; Homo sapiens, CNS panel, 50% net cell death, read-out: mean graph midpoint value (MG_MID) of Log10 LC50 (converted)) was > 100 µM, the GI50 (CNS cancer cell lines; Homo sapiens, six CNS cancer cell lines, exposure at least 48 h, read-out: GI50, range over the panel) was 4.44 to 52.3 µM and the “mean graph midpoint value (MG_MID) of Log10 GI50” value (Colon cancer cell lines; Colon panel) was −5.40 log10(mol/L). The “mean graph midpoint value (MG_MID) of log10 TGI” value (Colon cancer cell lines; Colon panel, total inhibition of net cell growth) was −4.11, the LC50 (Colon cancer cell lines; Homo sapiens, Colon panel, 50% net cell death, read-out: mean graph midpoint value (MG_MID) of Log10 LC50 (converted)) was > 100 µM and the GI50 (Colon cancer cell lines; Homo sapiens, seven colon cancer cell lines, exposure at least 48 h, read-out: GI50, range over the panel) was 2.94 to 6.21 µM. For the same molecule, the LC50 ([1]; Homo sapiens, Leukemia panel, 50% net cell death, read-out: mean graph midpoint value (MG_MID) of Log10 LC50 (converted)) was > 100 µM, the GI50 ([1]; Homo sapiens, six leukemia cancer cell lines, exposure at least 48 h, read-out: GI50, range over the panel) was 2.2 to 4 µM and the “mean graph midpoint value (MG_MID) of Log10 GI50” value ([1]; Leukemia panel) was −5.49 log10(mol/L). For the same molecule, the “mean graph midpoint value (MG_MID) of log10 TGI” value ([1]; Leukemia panel, total inhibition of net cell growth) was −4.20, the LC50 ([2]; Homo sapiens, Melanoma panel, 50% net cell death, read-out: mean graph midpoint value (MG_MID) of Log10 LC50 (converted)) was 81.3 µM and the GI50 ([2]; Homo sapiens, nine melanoma cancer cell lines, exposure at least 48 h, read-out: GI50, range over the panel) was 1.73 to 13.7 µM. The “mean graph midpoint value (MG_MID) of Log10 GI50” value ([2]; Melanoma panel) was −5.17 log10(mol/L), the “mean graph midpoint value (MG_MID) of log10 TGI” value ([2]; Melanoma panel, total inhibition of net cell growth) was −4.26 and the LC50 ([3]; Homo sapiens, Non-small cell lung panel, 50% net cell death, read-out: mean graph midpoint value (MG_MID) of Log10 LC50 (converted)) was > 100 µM. The GI50 ([3]; Homo sapiens, nine Non-small cell lung cancer cell lines, exposure at least 48 h, read-out: GI50, range over the panel) was 3.37 to 25.7 µM, the “mean graph midpoint value (MG_MID) of Log10 GI50” value ([3]; Non-small cell lung panel) was −5.18 log10(M) and the “mean graph midpoint value (MG_MID) of log10 TGI” value ([3]; Non-small cell lung panel, total inhibition of net cell growth) was −4.11. For the same molecule, the LC50 ([4]; Homo sapiens, Ovarian panel, 50% net cell death, read-out: mean graph midpoint value (MG_MID) of Log10 LC50 (converted)) was > 100 µM, the GI50 ([4]; Homo sapiens, seven ovarian cancer cell lines, exposure at least 48 h, read-out: GI50, range over the panel) was 3.12 to 6.29 µM and the “mean graph midpoint value (MG_MID) of Log10 GI50” value ([4]; Ovarian panel) was −4.93 mol/L. The “mean graph midpoint value (MG_MID) of log10 TGI” value ([4]; Ovarian panel, total inhibition of net cell growth) was >−4.0, the LC50 ([5]; Homo sapiens, Prostate panel, 50% net cell death, read-out: mean graph midpoint value (MG_MID) of Log10 LC50 (converted)) was > 100 µM and the GI50 ([5]; Homo sapiens, two prostate cancer cell lines (PC-3, DU-145), exposure at least 48 h, read-out: GI50, range over the panel) was 2.59 to 6.38 µM. For the same molecule, the “mean graph midpoint value (MG_MID) of Log10 GI50” value ([5]; Prostate panel) was −5.39 mol/L, the “mean graph midpoint value (MG_MID) of log10 TGI” value ([5]; Prostate panel, total inhibition of net cell growth) was >−4.0 and the CC50 (Renal cancer cell lines; Homo sapiens, Renal panel, 50% net cell death, read-out: mean graph midpoint value (MG_MID) of Log10 LC50 (converted)) was > 100 µM. For the same molecule, the GI50 (Renal cancer cell lines; Homo sapiens, eight renal cancer cell lines, exposure at least 48 h, read-out: GI50, range over the panel) was 1.99 to 9.44 µM, the “mean graph midpoint value (MG_MID) of Log10 GI50” value (Renal cancer cell lines; Renal panel) was −5.31 log10(mol/L) and the “mean graph midpoint value (MG_MID) of log10 TGI” value (Renal cancer cell lines; Renal panel, total inhibition of net cell growth) was −4.14.
